In PMC7587356, “High-Throughput Screening for Inhibitors of the SARS-CoV-2 Protease Using a FRET-Biosensor” (Molecules, 2020):
Structures can show the parent of a compound that is named as a salt. Where two headings read alike, the source gives them in different places. Peptide text beside a SMILES is read from it. * marks the point of attachment. Cbz = O=C(OCc1ccccc1)*

Molecular target: SARS-CoV-2 3CLpro (Severe acute respiratory syndrome coronavirus 2, UniProt P0DTD1)
Experiment: biochemical
Type: biochemical
Design: Replicate_1 / Replicate_2 / mean / mean (LOPAC_screen_w_protease): unit not given here
Conditions: for inhibition at 5 µM: 4 h
[1] = sheet LOPAC_screen_w_protease, primary screen at 5 µM, mean of two replicates
[2] = sheet LOPAC_screen_w_protease, primary screen at 5 µM, replicate 1
[3] = sheet LOPAC_screen_w_protease, primary screen at 5 µM, replicate 2
[4] = LOPAC1280 primary screen with protease, 5 µM compound, replicate 1, read-out: Replicate_1 (LOPAC_screen_w_protease)
[5] = LOPAC1280 primary screen with protease, 5 µM compound, replicate 2, read-out: Replicate_2 (LOPAC_screen_w_protease)
[6] = sheet LOPAC_screen_w_protease, primary screen with protease, mean of two replicates
[7] = sheet LOPAC_screen_w_protease, primary screen with protease, replicate 1
[8] = sheet LOPAC_screen_w_protease, primary screen with protease, mean of two replicates, read-out: mean
[9] = sheet LOPAC_screen_w_protease, primary screen with protease, replicate 1, read-out: Replicate_1
[10] = sheet LOPAC_screen_w_protease, primary screen with protease, replicate 2, read-out: Replicate_2
[11] = sheet LOPAC_screen_w_protease, LOPAC1280 primary screen at 5 µM, with protease, mean of the two replicates
[12] = sheet LOPAC_screen_w_protease, LOPAC1280 primary screen at 5 µM, with protease, replicate 1
[13] = sheet LOPAC_screen_w_protease, LOPAC1280 primary screen at 5 µM, with protease, replicate 2
[14] = sheet LOPAC_screen_w_protease, LOPAC1280 primary screen at 5 µM, with protease, mean of the two replicates, read-out: mean
[15] = sheet LOPAC_screen_w_protease, LOPAC1280 primary screen at 5 µM, with protease, replicate 1, read-out: Replicate_1
[16] = sheet LOPAC_screen_w_protease, LOPAC1280 primary screen at 5 µM, with protease, replicate 2, read-out: Replicate_2
[17] = sheet LOPAC_screen_w_protease, LOPAC1280 at 5 µM, mean of two replicates, read-out: mean
[18] = sheet LOPAC_screen_w_protease, LOPAC1280 at 5 µM, replicate 1, read-out: Replicate_1
[19] = sheet LOPAC_screen_w_protease, LOPAC1280 at 5 µM, replicate 2, read-out: Replicate_2
[20] = sheet LOPAC_screen_w_protease, primary screen at 5 µM, mean of two replicates, read-out: mean (LOPAC screen with protease)
[21] = sheet LOPAC_screen_w_protease, primary screen at 5 µM, replicate 1, read-out: Replicate_1 (LOPAC screen with protease)
[22] = sheet LOPAC_screen_w_protease, primary screen at 5 µM, replicate 2, read-out: Replicate_2 (LOPAC screen with protease)
[23] = LOPAC1280 primary screen with protease, 5 µM compound, mean of the two replicates
[24] = sheet LOPAC_screen_w_protease, primary screen with protease, 5 µM, mean of two replicates
[25] = sheet LOPAC_screen_w_protease, primary screen with protease, 5 µM, replicate 1
[26] = sheet LOPAC_screen_w_protease, primary screen with protease, 5 µM, replicate 2

For `Br.Oc1cc2c(c(Cl)c1O)CCNCC2c1ccccc1` (racemic) [(±)-6-Chloro-PB hydrobromide], the “mean (LOPAC screen with protease)” value [1] was 66.2827, the “Replicate_1 (LOPAC screen with protease)” value [2] was 64.3769 and the “Replicate_2 (LOPAC screen with protease)” value [3] was 68.1884.

For `CCCOc1ccccc1-c1nc2nn[nH]c2c(=O)[nH]1` [Zaprinast], the inhibition at 5 µM [4] was 2.02%, the inhibition at 5 µM [5] was 1.12% and the “mean (LOPAC_screen_w_protease)” value (LOPAC1280 primary screen with protease, 5 µM compound, mean of two replicates) was 1.567.

17alpha-hydroxyprogesterone was tested, and the mean [6] was 2.147 and the Replicate_1 [7] was 1.557.

`COc1ccc(CN(CCN(C)C)c2ccccn2)cc1` [Pyrilamine maleate] was tested, and the inhibition at 5 µM [8] was 2.44%, the inhibition at 5 µM [9] was 1.24% and the inhibition at 5 µM [10] was 3.63%.

Work on `CC1=NN=C(c2ccc(N)cc2)c2cc3c(cc2C1)OCO3.Cl` [GYKI 52466 hydrochloride] yielded a mean [11] of 0.5948, a Replicate_1 [12] of 3.75 and a Replicate_2 [13] of -2.56.

`Cl.Clc1cc(I)cc(Cl)c1NC1=NCCN1` [p-Iodoclonidine hydrochloride] gave a mean [6] of 2.258, a Replicate_1 [7] of 3.3723 and a Replicate_2 (sheet LOPAC_screen_w_protease, primary screen with protease, replicate 2) of 1.143.

For `Cc1ccc(S(=O)(=O)N[C@@H](Cc2ccccc2)C(=O)CCl)cc1`, the “mean (LOPAC screen with protease)” value [1] was 61.4515, the “Replicate_1 (LOPAC screen with protease)” value [2] was 61.5523 and the “Replicate_2 (LOPAC screen with protease)” value [3] was 61.3507.

Work on `NCCc1c[nH]c2ccccc12` [Tryptamine hydrochloride] yielded an inhibition at 5 µM [14] of 0.461%, an inhibition at 5 µM [15] of 0.957% and an inhibition at 5 µM [16] of -0.0349%.

`Cc1ccc(=O)n(-c2ccccc2)c1` [Pirfenidone] gave an inhibition at 5 µM (sheet LOPAC_screen_w_protease, primary screen of LOPAC1280 at 5 µM with protease, mean of the two replicates, read-out: mean) of 4.02%, an inhibition at 5 µM (sheet LOPAC_screen_w_protease, primary screen of LOPAC1280 at 5 µM with protease, replicate 1, read-out: Replicate_1) of 2.71% and an inhibition at 5 µM (sheet LOPAC_screen_w_protease, primary screen of LOPAC1280 at 5 µM with protease, replicate 2, read-out: Replicate_2) of 5.33%.

For `CN(C)CC[C@@H](c1ccc(Br)cc1)c1ccccn1` [(+)-Brompheniramine maleate], the inhibition at 5 µM [17] was 1.03%, the inhibition at 5 µM [18] was 0.743% and the inhibition at 5 µM [19] was 1.32%.

Work on `C[C@@H]1O[C@@H](O[C@H]2C[C@@H](O)[C@]3(CO)[C@H]4[C@H](O)C[C@]5(C)[C@@H]([C@@H]6COC(=O)C6)CC[C@]5(O)[C@@H]4CC[C@]3(O)C2)[C@H](O)[C@H](O)[C@H]1O` [Dihydroouabain] yielded a mean (sheet LOPAC_screen_w_protease, primary screen of LOPAC1280 at 5 µM with protease, mean of the two replicates) of 3.947, a Replicate_1 (sheet LOPAC_screen_w_protease, primary screen of LOPAC1280 at 5 µM with protease, replicate 1) of 5.984 and a Replicate_2 (sheet LOPAC_screen_w_protease, primary screen of LOPAC1280 at 5 µM with protease, replicate 2) of 1.91.

Molecule `NCCCCCCCCCCN` [1,10-Diaminodecane] has an inhibition at 5 µM [8] of 2.36%, an inhibition at 5 µM [9] of 3.01% and an inhibition at 5 µM [10] of 1.71%.

`C#CCOC(=O)C1=CCCN(C)C1` [Arecaidine propargyl ester hydrobromide] was tested, and the inhibition at 5 µM [17] was 1.23%, the inhibition at 5 µM [18] was 0.854% and the inhibition at 5 µM [19] was 1.62%.

`CCCCCCCCCC[Si](C)(C)CCC(=O)NC(Cc1ccc(C)cc1)c1ccccc1` (stereo not shown) [Sandoz 58-035] showed a mean [11] of 0.7639, a Replicate_1 [12] of 1.25 and a Replicate_2 [13] of 0.2774.

Work on `COC(=O)C1=C(C)NC(C)=C(C(=O)OC)C1c1ccccc1[N+](=O)[O-]` [Nifedipine] yielded an inhibition at 5 µM [20] of 14.6%, an inhibition at 5 µM [21] of 13.8% and an inhibition at 5 µM [22] of 15.5%.

`CC(N)Cc1c[nH]c2ccc(OCc3cccs3)cc12` (stereo not shown) [BW 723C86] gave a Replicate_1 of 2.832, a Replicate_2 of 3.4189 and a mean of 3.125.

For `Cl.Cl.Oc1ccc2c3c1O[C@H]1c4[nH]c5c(c4C[C@@]4(O)[C@@H](C2)N(CC2CC2)CC[C@]314)C[C@@]1(O)[C@H]2Cc3ccc(O)c4c3[C@@]1(CCN2CC1CC1)[C@H]5O4` [nor-Binaltorphimine dihydrochloride], the “mean (LOPAC screen with protease)” value [1] was 34.0021, the “Replicate_1 (LOPAC screen with protease)” value [2] was 34.0521 and the “Replicate_2 (LOPAC screen with protease)” value [3] was 33.9521.

Molecule `O=C(c1ccc2c(c1)OCCO2)N1CCCCC1` [CX 546] has a Replicate_1 of 1.108, a Replicate_2 of -1.5724 and a mean of -0.2323.

In the case of `CC(C)[C@H](NC(=O)OCc1ccccc1)C(=O)N[C@H](C=O)Cc1ccccc1` [MDL 28170] (Cbz-Val-Phe-aldehyde), the inhibition at 5 µM (read-out: Replicate_1 (LOPAC_screen_w_protease)) was 0.281% and the inhibition at 5 µM (read-out: Replicate_2 (LOPAC_screen_w_protease)) was 3.52%.

`Cl.NCC(O)c1cc(O)c(O)cc1F` (stereo not shown) [6-Fluoronorepinephrine hydrochloride] showed a mean (sheet LOPAC_screen_w_protease, primary screen with protease, compound at 5 µM, mean of two replicates) of 2.749, a Replicate_1 (sheet LOPAC_screen_w_protease, primary screen with protease, compound at 5 µM, replicate 1) of 2.331 and a Replicate_2 (sheet LOPAC_screen_w_protease, primary screen with protease, compound at 5 µM, replicate 2) of 3.1667.

In the case of `CCN1C(=O)C=CC1=O` [N-Ethylmaleimide], the inhibition at 5 µM [4] was 5.02%, the inhibition at 5 µM [5] was -1.33% and the “mean (LOPAC_screen_w_protease)” value [23] was 1.849.

Molecule `Cc1c(C)c2c(c(C)c1O)CCC(C)(CN1CCN(c3cc(N4CCCC4)nc(N4CCCC4)n3)CC1)O2.Cl.Cl` (stereo not shown) [U-83836 dihydrochloride] has a mean [24] of 0.07046, a Replicate_1 [25] of -0.1864 and a Replicate_2 [26] of 0.3273.

`CC(C)COCC(CN(Cc1ccccc1)c1ccccc1)N1CCCC1` (stereo not shown) [Bepridil hydrochloride] gave an inhibition at 5 µM (read-out: Replicate_1 (LOPAC screen with protease)) of 8.81%, an inhibition at 5 µM (read-out: Replicate_2 (LOPAC screen with protease)) of 7.08% and an inhibition at 5 µM (read-out: mean (LOPAC screen with protease)) of 7.94%.

Molecule `C1CNCCN1.COc1cc(C(O)CO)ccc1O.COc1cc(C(O)CO)ccc1O` (stereo not shown) [MHPG piperazine] has a Replicate_1 of 4.5396, a Replicate_2 of 3.9909 and a mean of 4.265.

`CC(=O)c1c(O)c(C)c(O)c(Cc2c(O)c3c(c(C(=O)/C=C/c4ccccc4)c2O)OC(C)(C)C=C3)c1O` [Rottlerin] gave an inhibition at 5 µM (read-out: Replicate_1) of 4.21%, an inhibition at 5 µM (read-out: Replicate_2) of 5.11% and an inhibition at 5 µM (read-out: mean) of 4.66%.

Work on `Nc1cc(N2CCCCC2)nc(N)[n+]1[O-]` [Minoxidil] yielded an inhibition at 5 µM (sheet LOPAC_screen_w_protease, primary screen with protease, compound at 5 µM, mean of two replicates, read-out: mean) of 2.95%, an inhibition at 5 µM (sheet LOPAC_screen_w_protease, primary screen with protease, compound at 5 µM, replicate 1, read-out: Replicate_1) of 3.92% and an inhibition at 5 µM (sheet LOPAC_screen_w_protease, primary screen with protease, compound at 5 µM, replicate 2, read-out: Replicate_2) of 1.98%.

For `CCCCNc1cc(C(=O)O)cc(S(N)(=O)=O)c1Oc1ccccc1` [Bumetanide], the inhibition at 5 µM (read-out: Replicate_1) was -0.596%, the inhibition at 5 µM (read-out: Replicate_2) was 1.11% and the inhibition at 5 µM (read-out: mean) was 0.258%.

For `Cl.NCCNC(=O)c1ncsc1-c1cccc(F)c1` [Ro 41-1049 hydrochloride], the mean [24] was -0.1611, the Replicate_1 [25] was 1.896 and the Replicate_2 [26] was -2.218.

With `COc1cc(-c2ccc(=O)[nH]n2)ccc1OC(F)F` [Zardaverine] the inhibition at 5 µM [4] was 2.27%, the inhibition at 5 µM [5] was 1.55% and the “mean (LOPAC_screen_w_protease)” value [23] was 1.91.

With `Cl.NC1(C(=O)O)CC1` the mean (sheet LOPAC_screen_w_protease, LOPAC1280 at 5 µM, mean of two replicates) was 1.084, the Replicate_1 (sheet LOPAC_screen_w_protease, LOPAC1280 at 5 µM, replicate 1) was 2.432 and the Replicate_2 (sheet LOPAC_screen_w_protease, LOPAC1280 at 5 µM, replicate 2) was -0.2629.

Molecule `O=C1NCN(c2ccccc2)C12CCN(CC1COc3ccccc3O1)CC2` (stereo not shown) [Spiroxatrine] has an inhibition at 5 µM [14] of 0.522%, an inhibition at 5 µM [15] of 1.86% and an inhibition at 5 µM [16] of -0.819%.

In the case of `CC[N+](CC)(CC)CCOc1ccc(/C=C/c2ccccc2)cc1` [MG 624], the inhibition at 5 µM [20] was 11.8%, the inhibition at 5 µM [21] was 10.3% and the inhibition at 5 µM [22] was 13.3%.

`N.N.N.N.N.N.N.N.N.N.N.N.N.N.[Cl-].[Cl-].[Cl-].[Cl-].[Cl-].[Cl-].[O-2].[O-2].[Ru+3].[Ru+3].[Ru+4]` [Ruthenium red] was tested, and the “mean (LOPAC_screen_w_protease)” value [23] was 1.824, the “Replicate_1 (LOPAC_screen_w_protease)” value (LOPAC1280 primary screen with protease, 5 µM compound, replicate 1) was 2.607 and the “Replicate_2 (LOPAC_screen_w_protease)” value (LOPAC1280 primary screen with protease, 5 µM compound, replicate 2) was 1.042.

`CN(C)C/C=C(/c1ccc(Br)cc1)c1cccnc1` [Zimelidine dihydrochloride] was tested, and the inhibition at 5 µM [17] was 0.989%, the inhibition at 5 µM [18] was 1.05% and the inhibition at 5 µM [19] was 0.928%.

Work on `C[C@H](N)CN1CCc2ccc(Br)cc21.C[C@H](N)CN1CCc2ccc(Br)cc21.O=C(O)/C=C/C(=O)O` [VER-3323 hemifumarate salt] yielded a mean [11] of 0.8173, a Replicate_1 [12] of 0.78 and a Replicate_2 [13] of 0.8545.
